Key:
Format in all cases: biochemical
[1] = target: T1, Btk (Homo sapiens, UniProt Q06187); assay: Btk in vitro inhibitory activity (one of Method A TR-FRET, Method B electrophoretic mobility shift, Method C radiometric filter binding); settings: wild-type Btk; read-out: Btk-WT IC50
T1 construct: purified from insect cells as a full-length construct containing a N-terminal 6X-His tag; His6 (N); made in house; host or cells: insect cells (Method C)
How it was run: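 Method A: TR-FRET with 0.5 nM Btk at [ATP]=Km, EDTA-quenched, 665/615 nm ratio; Ki(app) converted to IC50. Method B: 1 nM full-length His6 human BTK, 1 μM FAM peptide, pH 7.5, mobility-shift product/sum ratio, 12-point 4-parameter fit. Method C: radiometric filter binding, 8 nM His-tagged BTK, 0.2 mg/mL poly-Glu-Tyr.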

[2] = target: T2, TEC (Homo sapiens, UniProt P42680); assay: Inhibition of a panel of kinases (in vitro HotSpot kinase assay, 33P-ATP, 1 μM ATP); settings: HotSpot kinase assay, 1 μM ATP
T2 sequence (P42680 1-631): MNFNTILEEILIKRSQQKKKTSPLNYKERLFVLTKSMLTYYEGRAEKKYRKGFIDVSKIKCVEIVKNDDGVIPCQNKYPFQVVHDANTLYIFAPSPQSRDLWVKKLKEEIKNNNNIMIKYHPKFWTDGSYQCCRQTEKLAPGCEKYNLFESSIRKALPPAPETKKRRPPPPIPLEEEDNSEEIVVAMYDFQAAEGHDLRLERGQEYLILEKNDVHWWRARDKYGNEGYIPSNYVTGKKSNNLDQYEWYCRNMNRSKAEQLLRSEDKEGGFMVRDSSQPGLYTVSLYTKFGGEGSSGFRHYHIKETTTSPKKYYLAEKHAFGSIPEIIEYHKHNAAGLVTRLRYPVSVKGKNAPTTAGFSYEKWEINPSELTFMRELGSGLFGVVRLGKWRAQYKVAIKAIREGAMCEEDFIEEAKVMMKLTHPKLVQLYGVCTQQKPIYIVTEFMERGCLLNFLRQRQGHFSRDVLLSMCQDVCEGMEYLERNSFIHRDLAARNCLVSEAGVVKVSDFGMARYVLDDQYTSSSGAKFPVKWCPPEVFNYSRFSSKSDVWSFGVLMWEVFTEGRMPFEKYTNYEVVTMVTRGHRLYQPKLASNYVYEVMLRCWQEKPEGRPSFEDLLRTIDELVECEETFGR
How it was run: (§1)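 Purified kinase enzymes were incubated with an appropriate substrate and 33P-labelled ATP at 1 μM ATP. Inhibition was measured radiometrically from incorporation of the 33P label.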

[3] = target: T3, panel of kinases (Homo sapiens, UniProt P51813); assay: Inhibition of a panel of kinases (in vitro HotSpot kinase assay, 33P-ATP, 1 μM ATP), other kinases; settings: BMX wild-type, read-out: BMX-WT IC50
T3 sequence (P51813 1-675): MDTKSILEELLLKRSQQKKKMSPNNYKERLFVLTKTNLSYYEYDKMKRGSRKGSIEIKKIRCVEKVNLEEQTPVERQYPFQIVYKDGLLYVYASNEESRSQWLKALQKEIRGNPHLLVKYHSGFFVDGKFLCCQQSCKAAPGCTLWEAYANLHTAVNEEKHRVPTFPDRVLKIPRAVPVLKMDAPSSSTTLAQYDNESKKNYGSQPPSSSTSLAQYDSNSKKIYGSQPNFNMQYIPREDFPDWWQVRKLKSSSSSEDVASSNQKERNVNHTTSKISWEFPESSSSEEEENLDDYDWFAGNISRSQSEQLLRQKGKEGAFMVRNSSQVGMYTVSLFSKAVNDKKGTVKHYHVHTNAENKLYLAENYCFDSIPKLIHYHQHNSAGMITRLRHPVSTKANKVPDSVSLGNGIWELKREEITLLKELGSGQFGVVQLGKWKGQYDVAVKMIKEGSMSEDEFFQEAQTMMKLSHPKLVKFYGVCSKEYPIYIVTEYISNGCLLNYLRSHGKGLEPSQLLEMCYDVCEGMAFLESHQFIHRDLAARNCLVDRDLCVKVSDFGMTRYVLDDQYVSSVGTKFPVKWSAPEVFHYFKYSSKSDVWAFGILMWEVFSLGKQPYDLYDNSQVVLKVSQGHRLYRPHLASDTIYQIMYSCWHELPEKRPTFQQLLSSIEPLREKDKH
How it was run: as §1

T1 sequence (Q06187 whole entry): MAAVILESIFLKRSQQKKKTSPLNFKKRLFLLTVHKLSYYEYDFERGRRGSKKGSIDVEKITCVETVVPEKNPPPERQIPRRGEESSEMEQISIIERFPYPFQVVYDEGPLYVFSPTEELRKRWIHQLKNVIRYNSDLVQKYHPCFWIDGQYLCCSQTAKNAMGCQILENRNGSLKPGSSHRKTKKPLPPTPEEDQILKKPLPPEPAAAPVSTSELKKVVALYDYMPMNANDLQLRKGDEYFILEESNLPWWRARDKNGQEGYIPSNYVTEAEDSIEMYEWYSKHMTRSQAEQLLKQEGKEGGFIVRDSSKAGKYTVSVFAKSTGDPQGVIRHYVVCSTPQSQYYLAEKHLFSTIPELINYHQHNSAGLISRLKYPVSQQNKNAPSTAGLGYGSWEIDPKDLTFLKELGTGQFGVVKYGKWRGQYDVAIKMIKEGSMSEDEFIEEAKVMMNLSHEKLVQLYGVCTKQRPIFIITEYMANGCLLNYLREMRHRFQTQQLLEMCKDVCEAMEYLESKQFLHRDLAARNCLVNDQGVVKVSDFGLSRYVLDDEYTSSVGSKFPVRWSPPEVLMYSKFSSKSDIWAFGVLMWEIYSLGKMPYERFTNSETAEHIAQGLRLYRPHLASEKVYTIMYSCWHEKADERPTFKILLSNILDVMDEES

SMILES: CC(C)c1nc(C(=O)NCc2ccc(-c3ccnc4[nH]nc(N5CC[C@@H](N)C5)c34)cc2F)co1 [Example 357, N-[(4-{3-[(3R)-3-aminopyrrolidin-1-yl]-1H-pyrazolo[3,4-b]pyridin-4-yl}-2-fluorophenyl)methyl]-2-(propan-2-yl)-1,3-oxazole-4-carboxamide]
- IC50 [1]: 31 nM
- IC50 [2]: 4880 nM
- IC50 [3]: 1770 nM

SMILES: C=CC(=O)N[C@@H]1CCN(c2n[nH]c3nccc(-c4ccc(CNC(=O)c5coc(C(C)C)n5)c(F)c4)c23)C1 [Example 359, N-{[2-fluoro-4-(3-{(3R)-3-[(prop-2-enoyl)amino]pyrrolidin-1-yl}-1H-pyrazolo[3,4-b]pyridin-4-yl)phenyl]methyl}-2-(propan-2-yl)-1,3-oxazole-4-carboxamide]
- IC50 [1]: 0.402 nM
- IC50 [2]: 68.5 nM
- IC50 [3]: 58.8 nM

SMILES: CC(=O)N[C@@H]1CCN(c2n[nH]c3nccc(-c4ccc(CNC(=O)c5coc(C(C)C)n5)c(F)c4)c23)C1 [Example 360, N-[(4-{3-[(3R)-3-acetamidopyrrolidin-1-yl]-1H-pyrazolo[3,4-b]pyridin-4-yl}-2-fluorophenyl)methyl]-2-(propan-2-yl)-1,3-oxazole-4-carboxamide]
- IC50 [1]: 14.3 nM
- IC50 [2]: 3210 nM
- IC50 [3]: 3430 nM

SMILES: C=CC(=O)N1CC[C@@H](Nc2n[nH]c3nccc(-c4ccc(CNC(=O)c5ccc6scnc6c5)c(F)c4)c23)C1 [Example 362, N-{[2-fluoro-4-(3-{[(3R)-1-(prop-2-enoyl)pyrrolidin-3-yl]amino}-1H-pyrazolo[3,4-b]pyridin-4-yl)phenyl]methyl}-1,3-benzothiazole-5-carboxamide]
- IC50 [1]: 0.727 nM
- IC50 [2]: 73.3 nM
- IC50 [3]: 19 nM

SMILES: C=CC(=O)NC1CCN(c2n[nH]c3nccc(-c4ccc([C@@H](C)NC(=O)c5cc(C(C)(C)O)on5)cc4)c23)CC1 [Example 364, 5-(2-hydroxypropan-2-yl)-N-{(1R)-1-[4-(3-{4-[(prop-2-enoyl)amino]piperidin-1-yl}-1H-pyrazolo[3,4-b]pyridin-4-yl)phenyl]ethyl}-1,2-oxazole-3-carboxamide]
- IC50 [1]: 54.7 nM
- IC50 [2]: 9390 nM
- IC50 [3]: 5770 nM

SMILES: CC(=O)NC1CCN(c2n[nH]c3nccc(-c4ccc([C@@H](C)NC(=O)c5cc(C(C)(C)O)on5)cc4)c23)CC1 [Example 365, N-[(1R)-1-{4-[3-(4-acetamidopiperidin-1-yl)-1H-pyrazolo[3,4-b]pyridin-4-yl]phenyl}ethyl]-5-(2-hydroxypropan-2-yl)-1,2-oxazole-3-carboxamide]
- IC50 [1]: 46.2 nM
- IC50 [2]: 6160 nM
- IC50 [3]: 3040 nM

SMILES: N[C@@H]1CCN(c2n[nH]c3nccc(-c4ccc(CNC(=O)c5nc6c(s5)CCCC6)c(F)c4)c23)C1 [Example 366, N-[(4-{3-[(3R)-3-aminopyrrolidin-1-yl]-1H-pyrazolo[3,4-b]pyridin-4-yl}-2-fluorophenyl)methyl]-4,5,6,7-tetrahydro-1,3-benzothiazole-2-carboxamide]
- IC50 [1]: 21.9 nM
- IC50 [2]: 7070 nM
- IC50 [3]: 1320 nM

SMILES: C=CC(=O)N[C@@H]1CCN(c2n[nH]c3nccc(-c4ccc(CNC(=O)c5noc(C(C)C)n5)c(F)c4)c23)C1 [Example 367, N-{[2-fluoro-4-(3-{(3R)-3-[(prop-2-enoyl)amino]pyrrolidin-1-yl}-1H-pyrazolo[3,4-b]pyridin-4-yl)phenyl]methyl}-5-(propan-2-yl)-1,2,4-oxadiazole-3-carboxamide]
- IC50 [1]: 0.058 nM
- IC50 [2]: 47.4 nM
- IC50 [3]: 26.5 nM

SMILES: CC(=O)N[C@@H]1CCN(c2n[nH]c3nccc(-c4ccc(CNC(=O)c5noc(C(C)C)n5)c(F)c4)c23)C1 [Example 369, N-[(4-{3-[(3R)-3-acetamidopyrrolidin-1-yl]-1H-pyrazolo[3,4-b]pyridin-4-yl}-2-fluorophenyl)methyl]-5-(propan-2-yl)-1,2,4-oxadiazole-3-carboxamide]
- IC50 [1]: 4.66 nM
- IC50 [2]: 1480 nM
- IC50 [3]: 1140 nM

SMILES: CC(C)c1nc(C(=O)NCc2ccc(-c3ccnc4[nH]nc(N5CC[C@@H](N)C5)c34)cc2F)no1 [Example 370, N-[(4-{3-[(3R)-3-aminopyrrolidin-1-yl]-1H-pyrazolo[3,4-b]pyridin-4-yl}-2-fluorophenyl)methyl]-5-(propan-2-yl)-1,2,4-oxadiazole-3-carboxamide]
- IC50 [1]: 6.98 nM
- IC50 [2]: 3880 nM
- IC50 [3]: 1740 nM

SMILES: C=CC(=O)N1CC[C@@H](Nc2n[nH]c3nccc(-c4ccc([C@@H](C)NC(=O)c5noc(C(C)(C)C)n5)c(F)c4)c23)C1 [Example 372, 5-tert-butyl-N-{(1R)-1-[2-fluoro-4-(3-{[(3R)-1-(prop-2-enoyl)pyrrolidin-3-yl]amino}-1H-pyrazolo[3,4-b]pyridin-4-yl)phenyl]ethyl}-1,2,4-oxadiazole-3-carboxamide]
- IC50 [1]: 0.0597 nM
- IC50 [2]: 30.5 nM
- IC50 [3]: 36 nM

SMILES: CC(=O)N[C@@H]1CCN(c2n[nH]c3nccc(-c4ccc(CNC(=O)c5nc(C(C)(C)C)no5)c(F)c4)c23)C1 [Example 373, N-[(4-{3-[(3R)-3-acetamidopyrrolidin-1-yl]-1H-pyrazolo[3,4-b]pyridin-4-yl}-2-fluorophenyl)methyl]-3-tert-butyl-1,2,4-oxadiazole-5-carboxamide]
- IC50 [1]: 0.0597 nM
- IC50 [2]: 30.5 nM
- IC50 [3]: 36 nM

SMILES: C=CC(=O)N1CC[C@@H](Nc2n[nH]c3nccc(-c4ccc(CNC(=O)c5ccc6c(c5)OCCO6)c(F)c4)c23)C1 [Example 374, N-{[2-fluoro-4-(3-{[(3R)-1-(prop-2-enoyl)pyrrolidin-3-yl]amino}-1H-pyrazolo[3,4-b]pyridin-4-yl)phenyl]methyl}-2,3-dihydro-1,4-benzodioxine-6-carboxamide]
- IC50 [1]: 1.23 nM
- IC50 [2]: 146 nM
- IC50 [3]: 128 nM

SMILES: C=CC(=O)N1CC[C@@H](Nc2n[nH]c3nccc(-c4ccc(CNC(=O)N5CCCCC5)c(F)c4)c23)C1 [Example 375, N-{[2-fluoro-4-(3-{[(3R)-1-(prop-2-enoyl)pyrrolidin-3-yl]amino}-1H-pyrazolo[3,4-b]pyridin-4-yl)phenyl]methyl}piperidine-1-carboxamide]
- IC50 [1]: 22.1 nM
- IC50 [2]: 807 nM
- IC50 [3]: 98.3 nM

SMILES: C=CC(=O)N1CC[C@@H](Nc2n[nH]c3nccc(-c4ccc(CNC(=O)c5nn6c(c5C)OCCC6)c(F)c4)c23)C1 [Example 376, N-{[2-fluoro-4-(3-{[(3R)-1-(prop-2-enoyl)pyrrolidin-3-yl]amino}-1H-pyrazolo[3,4-b]pyridin-4-yl)phenyl]methyl}-3-methyl-6,7-dihydro-5H-pyrazolo[5,1-b][1,3]oxazine-2-carboxamide]
- IC50 [1]: 7.99 nM
- IC50 [2]: 344 nM
- IC50 [3]: 115 nM

SMILES: C=CC(=O)N1CC[C@@H](Nc2n[nH]c3nccc(-c4ccc(CNC(=O)c5cn6ccccc6n5)c(F)c4)c23)C1 [Example 377, N-{[2-fluoro-4-(3-{[(3R)-1-(prop-2-enoyl)pyrrolidin-3-yl]amino}-1H-pyrazolo[3,4-b]pyridin-4-yl)phenyl]methyl}imidazo [1,2-a]pyridine-2-carboxamide]
- IC50 [1]: 40.6 nM
- IC50 [2]: 671 nM
- IC50 [3]: 133 nM

SMILES: C=CC(=O)N1CC[C@@H](Nc2n[nH]c3nccc(-c4ccc(CNC(=O)c5ccc6sc(C)nc6c5)c(F)c4)c23)C1 [Example 378, N-{[2-fluoro-4-(3-{[(3R)-1-(prop-2-enoyl)pyrrolidin-3-yl]amino}-1H-pyrazolo[3,4-b]pyridin-4-yl)phenyl]methyl}-2-methyl-1,3-benzothiazole-5-carboxamide]
- IC50 [1]: 6.54 nM
- IC50 [2]: 278 nM
- IC50 [3]: 69.2 nM

Reference: patent publication US20180194762A1 (Pharmacyclics LLC, priority 2017, published 2018)
